Test results as given in US20240024273A1, “TOPICAL ADMINISTRATION OF 2-(DIETHYLAMINO)ETHYL 2-(4-ISOBUTYLPHENYL)PROPRIONATE FOR TREATMENT OF DISEASES” (TECHFIELDS PHARMA CO., LTD., priority 2020, published 2024).

System: Subjects with Osteoarthritis of the Knee
Assay: Second Phase 2 study: safety (treatment-emergent adverse events)
Assay type: in vivo, human
Conditions: Oral Ibuprofen 3 × 400 mg, N = 71
Description: Safety assessments will be performed at each visit and will include assessment of AEs, vital signs (blood pressure, pulse rate, and oral temperature), clinical laboratories, physical examination, skin irritation, and electrocardiograms (ECGs) as indicated in the study flow chart, Table 47.
Safety assessments will include AEs, vital signs (blood pressures, pulse rate, and oral temperature), clinical laboratories, physical examination, skin irritation, and ECGs at various time points during the study as indicated in the study flow chart.
Adverse events of interest include: local skin reactions around the treated knee(s), upper stomach pain, GI bleeding, serious cardiovascular side effects (e.g., thrombotic events, myocardial infarction, or stroke), jaundice, elevated liver function tests, and nausea.
Safety analyses will be conducted on the SAS. Safety parameters will be listed and summarized using standard descriptive statistics, as appropriate. No formal statistical analyses are planned.

SMILES: CC(C)Cc1ccc(C(C)C(=O)O)cc1 (stereo not shown) [Ibuprofen, 2-(4-isobutylphenyl)propionic acid, reference compound]
- Infections and Infestations: number of adverse events: 32
- Metabolism and Nutrition Disorders: number of adverse events: 8
- Metabolism and Nutrition Disorders: percentage of subjects with adverse events: 11.3%
- Metabolism and Nutrition Disorders: subjects with adverse events: 8
- Tooth Infection: number of adverse events: 3
- Urinary Tract Infection: number of adverse events: 11
- Urinary Tract Infection: subjects with adverse events, number (percentage): 10(14.1%)
